These results are taken from patent US4492693A, “Benzothienylglycyl cephalosporin derivatives” (priority 1983, dated 1985).

≈ marks a conversion by molar mass, not a printed value. Read-outs that look alike come from different tables or passages of the source.

Format in all cases: cell-based
In test [1] the test system is Staph. epi. The test can be described thus: Agar Dilution MIC (Table I). The conditions noted are these: read-out: Agar Dilution MIC. For orientation: In agar dilution the substance is mixed into plates at graded concentrations.
For test [2], the system named is Strep. D. The test can be described thus: Agar Dilution MIC (Table I). The following applies: read-out: Agar Dilution MIC. The text has this: (§1) A typical and preferred compound provided by this invention is 7-(3-benzothienyl)glycylamido-3-methyl-3-cephem-4-carboxylic acid, the compound illustrated in Example 9. The antibacterial activity of this compound has been determined in standard in vitro agar dilution assays against a variety of gram positive and gram negative microorganism. The following Tables present typical minimum inhibitory concentrations (MIC's) in μg/ml for several compounds of the invention when evaluated against the indicated microorganisms. MIC's for several known compounds are also presented for comparison.
Agar Dilution MIC (μg/ml)

Test [3] relates to E. coli. The test can be described thus: Agar Dilution MIC (Table I). The following applies: Escherichia coli.
Test [4] concerns Strep. A. As to the kind of experiment: Agar Dilution MIC (Table I). The following applies: strain C203; read-out: Agar Dilution MIC.
Test [5] deals with Strep. PN. The test can be described thus: Agar Dilution MIC (Table I). The conditions noted are these: strain PARK.
Test [6] concerns Staph. aureus. The test can be described thus: Agar Dilution MIC (Table I). The conditions noted are these: Staphylococcus aureus.
For test [7], the system named is Klebsiella. As to the kind of experiment: Agar Dilution MIC (Table I). The conditions noted are these: Klebsiella, read-out: Agar Dilution MIC.
Test [8] deals with H. influ. The test can be described thus: Agar Dilution MIC (Table I). The conditions noted are these: read-out: Agar Dilution MIC.
The test system of test [9] is Bacteroides fragilis. The test can be described thus: Susceptibility of Anaerobic Bacteroides Isolates by the Agar-Dilution Method (Table III). The following applies: 24 h.
Excerpt: as §1
(§2) Susceptibility of Anaerobic Bacteroides Isolates by the
(§3) Agar-Dilution Method MIC (μg/ml) readings 24 hrs. after incubation

For test [10], the system named is Bacteroides thetaiotaomicron. Described as above. The conditions noted are these: 24 h.
Excerpt: as §1, §2, §3

The test system of test [11] is Bacteroides corrodens. The description is as above. The conditions noted are these: Eikenella corrodens; strain 1874; readings 24 hrs. after incubation.
Excerpt: as §1, §2, §3

The mark [12] stands for this setting: strain V41, read-out: Agar Dilution MIC.
[13] abbreviates: strain X1.1, read-out: Agar Dilution MIC.
[14] abbreviates: strain X400, read-out: Agar Dilution MIC.

With `CC1=C(C(=O)O)N2C(=O)C(NC(=O)[C@H](N)c3csc4cc(Cl)ccc34)C2SC1` (stereo partly drawn) [Ex. 37B, D-7-(6-chloro-3-benzothienyl)glycylamido-3-methyl-3-cephem-4-carboxylic acid], the minimal inhibitory concentration (MIC) in test [1] (strain 222) amounted to 2 mg/L (≈ 4.57 µM); in test [1] (strain EPI1), 4 mg/L (≈ 9.13 µM); in test [2] (strain 2041), 32 mg/L (≈ 73.1 µM); in test [2] (strain X66) it was 128 mg/L (≈ 292 µM); in test [3] (strain EC14), 128 mg/L (≈ 292 µM); in [3] (strain N10) it was 128 mg/L (≈ 292 µM). The MIC in [3] (strain TEM) turned out to be 128 mg/L (≈ 292 µM); in test [4], 0.5 mg/L (≈ 1.14 µM); in [5], 1 mg/L (≈ 2.28 µM); in test [6] (setting [12]), 8 mg/L (≈ 18.3 µM); in [6] (setting [13]) it was 1 mg/L (≈ 2.28 µM); in test [6] (setting [14]) it was 16 mg/L (≈ 36.5 µM). For the same compound, the minimum inhibitory concentration (MIC) in test [7] (strain KAE) came to 128 mg/L (≈ 292 µM); in test [7] (strain X26) it was 4 mg/L (≈ 9.13 µM); in [7] (strain X68) it was 128 mg/L (≈ 292 µM); in [8] (strain 76) it was 1 mg/L (≈ 2.28 µM); in [8] (strain C.L.) it was 8 mg/L (≈ 18.3 µM).
`CC1=C(C(=O)O)N2C(=O)C(NC(=O)[C@@H](N)c3csc4ccc(Cl)cc34)C2SC1` (stereo partly drawn) [Ex. 38A, L-7-(5-chloro-3-benzothienyl)glycylamido-3-methyl-3-cephem-4-carboxylic acid]: the MIC worked out at 16 mg/L (≈ 36.5 µM) in test [1] (strain 222); 16 mg/L (≈ 36.5 µM) in test [1] (strain EPI1); 64 mg/L (≈ 146 µM) in test [2] (strain 2041); 64 mg/L (≈ 146 µM) in [2] (strain X66); 64 mg/L (≈ 146 µM) in test [3] (strain EC14); 64 mg/L (≈ 146 µM) in test [3] (strain N10). In addition, the MIC was 64 mg/L (≈ 146 µM) in test [3] (strain TEM); 1 mg/L (≈ 2.28 µM) in [4]; 2 mg/L (≈ 4.57 µM) in [5]; 16 mg/L (≈ 36.5 µM) in [6] (read-out: Agar Dilution MIC, strain S13E); 32 mg/L (≈ 73.1 µM) in [6] (setting [12]); 8 mg/L (≈ 18.3 µM) in [6] (setting [13]). For the same compound, the MIC was 64 mg/L (≈ 146 µM) in test [6] (setting [14]); 64 mg/L (≈ 146 µM) in test [7] (strain KAE); 16 mg/L (≈ 36.5 µM) in [7] (strain X26); 64 mg/L (≈ 146 µM) in [7] (strain X68); 2 mg/L (≈ 4.57 µM) in [8] (strain 76); 32 mg/L (≈ 73.1 µM) in test [8] (strain C.L.).
Take `CO[C@@]1(NC(=O)C(C(=O)O)c2ccc(O)cc2)C(=O)N2C(C(=O)O)=C(CSc3nnnn3C)CO[C@@H]21` (some centres unmarked) [moxalactam, reference compound]: the minimum inhibitory concentration (MIC) in test [9] (strain 9, readings 24 hrs. after incubation) turned out to be 0.5 mg/L (≈ 0.961 µM); in test [9] (strain 103, readings 24 hrs. after incubation), 4 mg/L (≈ 7.69 µM); in [9] (strain 104, readings 24 hrs. after incubation) it was 0.5 mg/L (≈ 0.961 µM); in test [9] (strain 106, readings 24 hrs. after incubation) it was 1 mg/L (≈ 1.92 µM); in [9] (strain 107, readings 24 hrs. after incubation), 1 mg/L (≈ 1.92 µM); in [9] (strain 108, readings 24 hrs. after incubation), 0.5 mg/L (≈ 0.961 µM). Besides, the MIC amounted to 0.5 mg/L (≈ 0.961 µM) in test [9] (strain 110, readings 24 hrs. after incubation); 8 mg/L (≈ 15.4 µM) in [9] (strain 111, readings 24 hrs. after incubation); 2 mg/L (≈ 3.84 µM) in test [9] (strain 1877, readings 24 hrs. after incubation); 2 mg/L (≈ 3.84 µM) in test [10] (strain 1438, readings 24 hrs. after incubation); 64 mg/L (≈ 123 µM) in [10] (strain 1900A, readings 24 hrs. after incubation); 8 mg/L (≈ 15.4 µM) in [11].

The MIC is the least concentration at which growth counts as inhibited.
